Assay results reported in patent US20140187618A1, “COMPOSITIONS, METHODS AND KITS USING FOR INDUCING OR ENHANCING NEUROGENESIS IN CELLS AND TISSUE” (Biocrescentia, LLC, priority 2012, published 2014).

How the values were obtained:
[1] = system: hippocampus cells (nestin-positive cells); test: Nestin immunostaining of hippocampus cell culture; assay type: cell-based, Wistar rats; settings: 10 μM of PD for 24 hours; control EGF and FGF-2 10 ng/ml
Description: The hippocampi of Wistar rats (post natal days one to five) were dissected and mechanically dissociated. Viable cells were plated in four wells of a multi-well culture dish (NUNC Inc.) at a density of 10^6 cells/well containing neurobasal medium without serum or growth factor. After 24 hours, the cells were washed and PD was added to the cells (treated group). Control cells (absent PD) were treated with 10 nanograms per milliliter (ng/ml) of each of EGF and FGF-2 only. Cultures were incubated at 37° C. with 5% CO2 and 95% atmospheric air.
Hippocampus cells were cultured with 10 μM of PD for 24 hours, and the cells were then immunostained for using an anti-nestin antibody. Nestin is an intermediate filament protein expressed in dividing cells during the early stages of development in the central nervous system (CNS), peripheral nervous system (PNS) and in myogenic and other tissues. Without being limited by any particular theory or mechanism of action, it is here envisioned that presence of nestin in hippocampus cells indicates the presence of progenitor stem cells.

[2] = system: neural stem cells in the dentate gyrus of the hippocampus; test: BrdU quantification of hippocampal stem cell proliferation in adult mice; set-up: species or system BalbC mice; settings: in vivo and in vitro; summary statement
Description: (§1) Adult six to eight week old male BalbC mice were obtained and kept in cages at room temperature, allowed access to food and water ad libidum, and subjected to 12-hour light/darkness cycles. All procedures were conducted in accordance with the guide for laboratory animal care of the Institute of Biological Sciences/Federal University of Pará (ICB/UFPA) Ethics Committee.
(§2) For BrdU analysis, animal subjects were administered BrdU (50 mg/kg) and were euthanized, and then were perfused with saline and 4% paraformaldehyde (PFA). The brain tissues were dissected and fixed at 4° C. in 4% PFA for 12 hours, then cryoprotected in 20% sucrose. The brain tissues were sliced at 40 micrometers (microns, μm) in a cryostat. […]
To analyze hippocampal stem cell proliferation and effect of physalins on this proliferation, groups of subjects were administered a dose of 50 mg/kg BrdU intraperitoneally and different doses of PD. […] The total number of BrdU-positive cells in the subgranule layer of the hippocampus was quantified. The number of BrdU-positive cells was calculated by measuring the area (ten micrometers corresponds to two cell bodies) between the hilus and the hippocampal granule layer in each cut (Bastos et al. 2008 J. Ethnopharmacol. 118(2): pages 246-251). […]
A qualitative analysis of BrdU-labeled cells in the dentate gyrus of adult mice was also performed using fluorescence microscopy. […]

[3] = system: BrdU-positive cells in the subgranule layer of the hippocampus; test: BrdU quantification of hippocampal stem cell proliferation, dosing every 7 days for 90 days; assay type: in vivo, BalbC mice; settings: 5 mg/kg every 7 days for 90 days
Description: as §1, §2
To further analyze and quantitate hippocampal stem cell proliferation, effect of physalins on this proliferation, and survival of subjects, groups of subjects were administered a dose of 50 mg/kg BrdU intraperitoneally and 5 mg/kg of PD or AE every 7 days for 90 days. […] The total number of BrdU-positive cells in the subgranule layer of the hippocampus was quantified. The number of BrdU-positive cells was calculated by measuring the area (ten micrometers corresponds to two cell bodies) between the hilus and the hippocampal granule layer in each cut by the method of Bastos et al. 2008 J. Ethnopharmacol. […]

[4] = in vivo; cited from earlier work
macrophages = settings: cultured in vitro model; cited from earlier work
Leishmania amazonensis = settings: cited from earlier work
[5] = system: TNF-α, interleukin-6 and interleukin-12; settings: mice treated with lipopolysaccharide; cited from earlier work

C[C@@]12C[C@H]3OC(=O)[C@@H]1CO[C@]14O[C@]5([C@H]2C1=O)[C@@](O)(CC[C@H]1[C@H]4C[C@@H](O)[C@@]2(O)CC=CC(=O)[C@]12C)C(=O)O[C@@]35C [Physalin D]
number of nestin-positive cells in the hippocampus cell culture [1]: increased the number of nestin-positive cells | neurogenic activity [2]: neurogenic activity in vivo and in vitro | actively dividing cells in adult hippocampus tissues [3]: promotes the increase of actively dividing cells | cell survival [3]: improves cell survival for at least three months

CNCCC(Oc1ccc(C(F)(F)F)cc1)c1ccccc1 (stereo not shown) [fluoxetine]
reduction of stress-induced neurogenesis [4]: reverses or prevents the reduction of stress-induced neurogenesis

C[C@]12C(=O)C=CCC1C(O)CC1C2CC[C@]2(O)C(=O)O[C@@]3(C)[C@H]4C[C@@]5(C)C6C(=O)[C@]1(OC[C@H]5C(=O)O4)O[C@@]632 (stereo partly shown) [Physalin G]
macrophages activation by lipopolysaccharide and interferon-γ (macrophages): inhibit macrophages activation | nitric oxide production (macrophages): substantial reduction in nitric oxide production

C[C@@]12C[C@H]3OC(=O)[C@@H]1CO[C@]14O[C@]5([C@H]2C1=O)[C@@](O)(CC[C@H]1[C@H]4C[C@H]2O[C@]24CC=CC(=O)[C@]14C)C(=O)O[C@@]35C [Physalin F]
growth of Leishmania amazonensis in macrophages infected with the parasite (Leishmania amazonensis): inhibit the growth | macrophages activation by lipopolysaccharide and interferon-γ (macrophages): inhibit macrophages activation | nitric oxide production (macrophages): substantial reduction in nitric oxide production

C[C@]12C(=O)C=CCC1=CC[C@@H]1[C@@H]2CC[C@@]2(O)C(=O)O[C@@]3(C)[C@H]4C[C@@]5(C)[C@@H](CO[C@@]16O[C@]23[C@H]5C6=O)C(=O)O4 [Physalin B]
growth of Leishmania amazonensis in macrophages infected with the parasite (Leishmania amazonensis): inhibit the growth | macrophages activation by lipopolysaccharide and interferon-γ (macrophages): inhibit macrophages activation | nitric oxide production (macrophages): substantial reduction in nitric oxide production | levels of TNF-α in serum [5]: significantly reduce levels | levels of interleukin-6 in serum [5]: significantly reduce levels | levels of interleukin-12 in serum [5]: significantly reduce levels
